In data set [1] the target is T1, Cytochrome P450 11B2, mitochondrial (Homo sapiens, UniProt P19099).
T1 sequence (P19099 whole entry): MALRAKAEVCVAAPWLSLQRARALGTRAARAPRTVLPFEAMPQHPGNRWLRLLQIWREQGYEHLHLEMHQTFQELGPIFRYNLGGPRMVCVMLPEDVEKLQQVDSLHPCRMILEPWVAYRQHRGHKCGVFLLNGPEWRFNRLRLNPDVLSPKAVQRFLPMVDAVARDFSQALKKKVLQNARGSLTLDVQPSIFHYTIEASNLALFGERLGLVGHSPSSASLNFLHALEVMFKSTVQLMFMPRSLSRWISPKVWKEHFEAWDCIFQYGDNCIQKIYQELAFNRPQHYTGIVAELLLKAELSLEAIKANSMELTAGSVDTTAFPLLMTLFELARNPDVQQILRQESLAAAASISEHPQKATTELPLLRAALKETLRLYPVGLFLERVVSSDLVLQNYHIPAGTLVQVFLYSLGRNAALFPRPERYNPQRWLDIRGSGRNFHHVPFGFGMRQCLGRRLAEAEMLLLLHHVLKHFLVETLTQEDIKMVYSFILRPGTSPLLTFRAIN
As to the kind of experiment: Inhibition Assay. The text has this:
(§1) The expression plasmids contains the ORF for either human/cyno CYP11B1 or CYP11B2 under the control of a suitable promoter (CMV-promoter) and a suitable resistance marker (neomycin). Using standard techniques the expression plasmid is transfected into G-402 cells and these cells are then selected for expressing the given resistance markers. Individual cell-clones are then selected and assessed for displaying the desired enzymatic activity using 11-Deoxycorticosterone (Cyp11B2) or 11-Deoxycortisol (Cyp11B1) as a substrate.G-402 cells expressing CYP11 constructs were established as described above and maintained in McCoy's 5a Medium Modified, ATCC Catalog No. 30-2007 containing 10% FCS and 400 μg/ml G418 (Geneticin) at 37° C. under an atmosphere of 5% CO2/95% air. Cellular enzyme assays were performed in DMEM/F12 medium containing 2.5% charcoal treated FCS and appropriate concentration of substrate (0.3-10 uM 11-Deoxycorticosterone, 11-Deoxycortisol or Corticosterone). For assaying enzymatic activity, cells were plated onto 96 well plates and incubated for 16 h. An aliquot of the supernatant is then transferred and analyzed for the concentration of the expected product (Aldosterone for CYP11B2; Cortisol for CYP11B1). The concentrations of these steroids can be determined using HTRF assays from CisBio analyzing either Aldosterone or Cortisol.

Data set [2] deals with T2, Cytochrome P450 11B1, mitochondrial (Homo sapiens, UniProt P15538).
T2 sequence (P15538 whole entry): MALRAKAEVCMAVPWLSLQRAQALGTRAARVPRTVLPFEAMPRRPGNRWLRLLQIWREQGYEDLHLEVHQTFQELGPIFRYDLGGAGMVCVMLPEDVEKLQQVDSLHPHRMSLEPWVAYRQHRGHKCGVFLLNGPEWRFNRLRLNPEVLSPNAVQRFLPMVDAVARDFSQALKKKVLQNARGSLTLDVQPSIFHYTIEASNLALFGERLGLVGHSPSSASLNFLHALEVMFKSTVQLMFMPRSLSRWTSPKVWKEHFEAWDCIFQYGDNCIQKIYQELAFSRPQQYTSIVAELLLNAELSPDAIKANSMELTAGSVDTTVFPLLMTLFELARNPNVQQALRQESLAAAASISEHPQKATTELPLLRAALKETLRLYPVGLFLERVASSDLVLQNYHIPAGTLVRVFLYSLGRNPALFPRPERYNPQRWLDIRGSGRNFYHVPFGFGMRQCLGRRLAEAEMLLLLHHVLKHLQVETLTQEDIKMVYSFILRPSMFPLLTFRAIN
As to the kind of experiment: Inhibition Assay.
Text: as §1

The record followed here is BindingDB's records for patent US9796702 (Hoffmann-La Roche, 2017).

Usually EC50 stands for the concentration at which the effect is half-maximal. Take `CC(=O)N1CCC(C(C)c2c[nH]nc2-c2cc3c(cc2F)N(C)C(=O)CC3)CC1` (racemic) [US9796702, 35]: it took 5 pM to reach a half-maximal effect in data set [1] (EC50).

In turn, `CC(=O)N1CCC([C@H](C)c2c[nH]nc2-c2ccc3c(c2F)CCC(=O)N3C)CC1` (single isomer, unassigned) [US9796702, 37] showed an EC50 in data set [2] of 4580 pM. This lies in the single-digit nanomolar range. Turning to `CN1C(=O)CCc2cc(-c3n[nH]cc3CC3CCN(C(=O)c4cnn(C)c4)CC3)ccc21` [US9796702, 17], the EC50 in data set [1] turned out to be 7 pM.

With `CCS(=O)(=O)N1CCC(Cc2c[nH]nc2-c2ccc3c(c2F)CCC(=O)N3C)CC1` [US9796702, 22], the midpoint of the response in data set [1], the EC50, lay at 2 pM. In turn, `CC(=O)N1CCC(C(C)c2c[nH]nc2-c2ccc3c(c2F)CCC(=O)N3C)CC1` (stereo not given) [US9796702, 36] displayed an EC50 in data set [1] of 3 pM. Against the preceding compound, the EC50 is about 1.5-fold higher.
